Consider one substance from patent EP1297826A1, “Nasal pharmaceutical compositions containing a NK-2 antagonist” (Menarini Ricerche S.p.A., priority 2001, dated 2003).

For data set [1] the following is noted: human, in vivo.
The conditions of data set [2]: rat, in vivo.
The conditions of data set [3]: dog, in vivo.
The conditions of data set [4]: in vivo.
Data set [5] relates to visceral hyperalgesia. The conditions noted are these: animal models of IBS; cited from earlier work.
For data set [6] the following is noted: rat, in vivo; cited from earlier work.
For data set [7] the following is noted: rat, in vivo; cited from earlier work. This is another data set of the same source.

Like-named read-outs stand apart in the source and are kept apart here.

For the substance “cyclo ( [Asn(β--D-2-deoxy-2-acetamido-Glc)-Asp-Trp-Phe-Dap-Leu]cyclo(2β--5β-)) [nepadutant]”, the oral bioavailability in data set [1] and in data set [6] was 1% in each case. The results for the Maximum bioavailability in data set [2], in data set [3] and in data set [4] were at most 20%, at most 2% and at most 2%, respectively. Further, in data set [5], the visceral hyperalgesia entry was “corrects visceral hyperalgesia”. Also, the absoption in data set [7] is on record as over 80%.
